System: Plasmodium falciparum
Test: Antimalarial activity against wild type Plasmodium falciparum 3D7 assessed as growth inhibition
Assay type: functional, organism-based
Conditions: not given

For CCOC(=O)c1c[nH]c2cc(OCc3ccccc3)ccc2c1=O, which IC50 is on record?
The IC50 was “ND(Insoluble)”.

Which IC50 does the source give for CCOC(=O)c1c[nH]c2ccc(OCc3ccccc3)cc2c1=O here?
Its IC50 is “ND(Insoluble)”.

Same assay, conditions: Plasmodium falciparum, 3D7; read-out: IC50

Which IC50 does the source give for O=c1cc[nH]c2cc(Oc3ccccc3)ccc12 here?
Its IC50 is 6720 nM.

For N#Cc1c[nH]c2cc(Oc3ccccc3)ccc2c1=O, which IC50 is on record?
Its IC50 is 8100 nM.

Which IC50 does the source give for O=C(OC1CCCCC1)c1c[nH]c2cc(Oc3ccccc3)ccc2c1=O here?
The IC50 was 29.6 nM.

Which IC50 does the source give for CCOC(=O)c1c[nH]c2ccc(OCc3ccc(OC(F)(F)F)cc3)cc2c1=O here?
Its IC50 is 675 nM.

For O=C(OC1CCCCC1)c1c[nH]c2ccc(Oc3ccccc3)cc2c1=O, which IC50 is on record?
The IC50 was 1820 nM.

For CCOC(=O)c1c[nH]c2cc(Cc3ccccc3)ccc2c1=O, which IC50 is on record?
The IC50 was 4.57 nM.

For N#Cc1c[nH]c2ccc(Oc3ccccc3)cc2c1=O, which IC50 is on record?
Its IC50 is over 10000 nM.

With CCOC(=O)c1c[nH]c2ccc(Cc3ccccc3)cc2c1=O as the molecule, how does the IC50 read?
The IC50 was 40.4 nM.

Which IC50 does the source give for CCOC(=O)c1c[nH]c2ccc(Cc3ccc(OC(F)(F)F)cc3)cc2c1=O here?
Its IC50 is 142 nM.

Which IC50 does the source give for CCOC(=O)c1c[nH]c2cc(Oc3ccccc3)ccc2c1=O here?
The IC50 was 19.3 nM.

With CCOC(=O)c1c[nH]c2cc(Cc3ccc(OC(F)(F)F)cc3)ccc2c1=O as the molecule, how does the IC50 read?
The IC50 was 0.46 nM.

With O=c1cc[nH]c2ccc(Oc3ccccc3)cc12 as the molecule, how does the IC50 read?
Its IC50 is 4700 nM.

Which IC50 does the source give for CCOC(=O)c1c[nH]c2ccc(Oc3ccc(OC(F)(F)F)cc3)cc2c1=O here?
The IC50 was 230 nM.

For CCOC(=O)c1c[nH]c2ccc(Oc3ccccc3)cc2c1=O, which IC50 is on record?
The IC50 was 164 nM.

Which IC50 does the source give for CCOC(=O)c1c[nH]c2cc(Oc3ccc(OC(F)(F)F)cc3)ccc2c1=O here?
The IC50 was 5.3 nM.

With CCOC(=O)c1c[nH]c2cc(OCc3ccc(OC(F)(F)F)cc3)ccc2c1=O as the molecule, how does the IC50 read?
The IC50 was 5 nM.

Which IC50 does the source give for CC(C)OC(=O)c1c[nH]c2cc(Oc3ccccc3)ccc2c1=O here?
The IC50 was 8.45 nM.

Which IC50 does the source give for CC(C)OC(=O)c1c[nH]c2ccc(Oc3ccccc3)cc2c1=O here?
Its IC50 is 184 nM.

System: not listed separately
Test: Inhibition of Plasmodium falciparum 3D7 cytochrome bc1 complex assessed as cytochrome c reduction by spectrophotometric analysis in presence of decylubiquinol
Conditions: not given

Which EC50 does the source give for O=C1C(O)=C([C@H]2CC[C@H](c3ccc(Cl)cc3)CC2)C(=O)c2ccccc21 [ATOVAQUONE] here?
The EC50 was 3 nM.

Which EC50 does the source give for CCOC(=O)c1c[nH]c2cc(Cc3ccc(OC(F)(F)F)cc3)ccc2c1=O here?
Its EC50 is 1.3 nM.
